From patent US10183032B2, “Methods for treating bacterial infection” (Ball State Innovation Corporation, priority 2012, dated 2019)

Tested on: β1 integrin subunit
Test: β1 integrin surface expression in HUVEC, flow cytometry
Format: cell-based, human
Settings: ML 141 10 μM versus DMSO
Method: FIG. 10B is a graph illustrating that expression of the […] integrin subunit remains substantially unchanged in HUVEC incubated with DMSO or ML 141 (10 μM). Pretreated HUVEC were stained with PE conjugated anti-β1 and examined using flow cytometry (no difference between groups was detected, t-test, p>0.05).
To examine β1 surface expression, recycling of the integrin was terminated (4° C., 15 min) and HUVEC lifted from plates using cell scrapers. After washing in FACS buffer (2% BSA/0.1% sodium azide/PBS), cells were incubated with PE-conjugated anti-β1 (BD; 30 min, on ice), washed, fixed in FACS buffer containing 4% paraformaldehyde, and analyzed using an Accuri C6 flow cytometer (BD).

**Q.** Which “expression of β1 integrin subunit” value does the source give for `COc1ccc(C2CC(c3ccccc3)=NN2c2ccc(S(N)(=O)=O)cc2)cc1` (stereo not shown) [ML 141, 4-[3-(4-methoxyphenyl)-5-phenyl-3,4-dihydropyrazol-2-yl]benzenesulfonamide] here?
**A.** no difference
